In US20240368710A1, “STREAMLINED PLATFORM FOR BACTERIAL IDENTIFICATION AND ANTIBIOTIC SUSCEPTIBILITY TEST” (THE JOHNS HOPKINS UNIVERSITY, priority 2017, published 2024):

Legend:
E. coli = experiment: bulk qPCR/HRMA antibiotic susceptibility test (growth by 16S rDNA Cq); type: cell-based, Escherichia coli; conditions: for Cq value compared to the no-drug (growth) controls: 2 hours of incubation with gentamicin (1 μg/mL, FIG. 6A)
Protocol: (§1) FIG. 1 illustrates a protocol for combined ID (Identification of pathogen species) and AST (antibiotic susceptibility test) in bulk format. The protocol begins by dividing the sample into 2 portions; with and without antibiotic followed by brief incubation. Then, the cultured samples are added into PCR mixture to perform qPCR & HRMA. An additional step of DNA isolation may be performed prior to PCR. AST is determined based on Cq differences (ΔCq) and ID is obtained from HRMA based classification.
FIG. 5A-5B illustrates the comparison between the proposed AST approaches to conventional broth microdilutional method. […] (b) Conventional broth microdilutional method of the same drug concentration with overnight incubation.
(§2) FIG. 6A-6C illustrates an integrated broad-scale pathogen identification and growth detection via qPCR and HRMA. (a) Measurement of bacterial growth of E. coli and S. aureus under treatment of gentamicin (1 μg/mL) via qPCR detection of 16S rDNA. The growth status and antibiotic susceptibility of bacteria were determined by comparing the Cq value to the no-drug control. (b) Measured melt curves from amplicons of E. coli and S. aureus for both sensitive and resistant strands. […]
(§3) The inventors have designed an assay protocol to enable combined ID and AST into a single step process (FIG. 1) and using the whole blood sample as an example (FIG. 4). […] The subsequent translation to the microfluidic single-cell assay in described below can facilitate digital diagnostics with enhanced sensitivity, specificity and quantification capability.
The present invention measures bacterial growth by quantifying the bacterial DNA content using qPCR. […] When performing AST, the sample from culture tubes are added to PCR mixes immediately after brief bacterial culture for subsequent detection and quantification of bacterial DNA via qPCR. The quantification cycle (Cq) value indicates the difference in growth rate of different strains under the drug treatment; thereby the antibiotic susceptibility can be determined. […]

E. faecalis = experiment: digital PCR/HRMA AST of mixed sample in 96-well plate; type: cell-based, Enterococcus faecalis; conditions: sensitive strain in mix with S. aureus; 2 hours with and without 8 μg/mL of gentamicin; DNA diluted 60000-fold
Protocol: (§4) FIG. 2 illustrates a protocol for combined ID and AST using digital detection. The protocol begins by dividing the sample into 2 portions; with and without antibiotic followed by brief incubation. DNA isolation can be performed to extract bacterial DNA from the samples. Then, the samples are mixed with PCR mixture and diluted across very large number of isolated small volume reactions so that there is either zero or one bacterial DNA present in any individual reaction to perform digital PCR & digital HRMA. ID is obtained from HRMA based classification on each positive reactions. AST of each target bacterial species is determined by comparing the quantity of the DNA of the target bacteria from the 2 portions which indicates by the total number of positive identification associated to the identified target bacteria species.
(§5) FIG. […] Orange lines represent S. aureus and blue lines represent E. faecalis. (a) Melt curves from the sample incubated without gentamicin (b) Melt curves from the sample incubated with gentamicin (c) AST can be determined using absolute count of each species which bases on the total number of positive reactions of each specific melt curve from HRMA.
(§6) This method (FIG. 2) begins by splitting the sample to incubate with and without antibiotic. […] The species of unidentified bacteria in each positive reactions is then determined preferably using HRMA. […]

S. aureus [1] = experiment: as above; type: cell-based, Staphylococcus aureus; conditions: sensitive strain in mix with E. faecalis; 2 hours with and without 8 μg/mL of gentamicin; DNA diluted 60000-fold
Protocol: as §4, §5, §6

S. aureus [2] = experiment: bulk qPCR/HRMA antibiotic susceptibility test (growth by 16S rDNA Cq); type: cell-based, Staphylococcus aureus; conditions: 2 hours of incubation with gentamicin (1 μg/mL, FIG. 6A)
Protocol: as §1
as §2, with “(a) Measurement of bacterial growth of E. coli and S. aureus under treatment of gentamicin (1 μg/mL) via qPCR detection of 16S rDNA.” left out
as §3
The present invention measures bacterial growth by quantifying the bacterial DNA content using qPCR. […]

gentamicin
MIC range by ΔCq approach (E. coli; E. coli sensitive strain, gentamicin 0.125-8 μg/mL, FIG. 5): corresponds to standard CLSI MIC value and the conventional method
Cq value compared to the no-drug (growth) controls (E. coli; resistant strand of E. coli): close to the no-drug controls
Cq value compared to the no-drug (growth) controls (E. coli; sensitive strand of E. coli): increased Cq value
count of no-gentamicin controls greater than gentamicin-treated samples (E. faecalis): 3-5 folds
count of no-gentamicin controls greater than gentamicin-treated samples (S. aureus [1]): 3-5 folds
Cq value compared to the no-drug (growth) controls (S. aureus [2]; resistant strand of S. aureus): close to the no-drug controls
Cq value compared to the no-drug (growth) controls (S. aureus [2]; sensitive strand of S. aureus): increased Cq value
